From publication PMC9412875, “^64Cu-DOTHA2-PSMA, a Novel PSMA PET Radiotracer for Prostate Cancer with a Long Imaging Time Window” (Pharmaceuticals, 2022)
Where two headings read alike, the source gives them in different places.

Legend:
PSMA = target: PSMA; design: method as in PMID 25883127; conditions: cited from earlier work
[1] = Plasma stability (ex vivo) and protein binding in mouse serum/plasma; assay type: in vitro ADME; conditions: incubation of free 64Cu(OAc)2 in mouse plasma
Experimental: Plasma stability studies were carried out by incubating ^64Cu-DOTHA2-PSMA (50 MBq in 250 μL PBS buffer) in 250 μL of mouse serum at 37 °C for up to 24 h. The plasma was then mixed twice with ethanol (1:1) to precipitate all the proteins. The samples were subjected to vortex mixing for 1 min and then centrifugation for 10 min at 7000 rpm. Plasma proteins were separated from the soluble component by ultracentrifugation and the radioactivity was assessed. The supernatant fraction was assayed by radio-TLC on C18 plates and by UPLC; free ^64Cu(OAc)2 and ^64Cu-DOTHA2-PSMA were used as standards. The radio-TLCs were eluted with 0.1 M sodium citrate buffer at pH 5.5 using an Instant Imager system (BioScan, DC, U.S.A.) for radiodetection. The precipitated proteins were again subjected to 10% TFA, vortexed for 2–3 min, and then centrifuged for 10 min at 7000 rpm. The separation and analysis for the supernatant and the proteins were performed in the same manner.
The protein binding ability was evaluated by incubating ^64Cu-DOTHA2-PSMA (100 MBq) in phosphate buffer (250 μL, pH 7) at 37 °C and fresh mouse serum (250 μL) and for 1 h, 4 h, and 24 h. Plasma proteins were precipitated by the addition of ethanol (1:1, v/v) to the plasma samples, followed by centrifugation at 7000 rpm for 5 min at room temperature and separation of the supernatant. This process was repeated three times with the same volume of ethanol, and the supernatants were pooled. The radioactivity content of the supernatant and the precipitated protein were measured in a dose calibrator to obtain the protein binding percentage.

[2] = cited from earlier work
[3] = design: method as in PMID 29088775, doi:10.1515/ract-2016-2632; conditions: cited from earlier work
LNCaP cells = test: Cellular efflux assay; assay type: cell-based, human; conditions: 1h incubation
Experimental: Here, 12-well polylysine-coated Cellbind plates were seeded with 150 × 10^3 LNCaP cells with 1.75 mL of cell media. At 70–100% confluence (3 days of growth), the cell medium was changed and 37 kBq of ^64Cu-DOTHA2-PSMA in 1 mL of cell medium was added to each well of group 1 and 160 kBq to each of group 2.
For efflux assays, after adding ^64Cu-DOTHA2-PSMA, cells were incubated for 60 min for the time points 15 min to 4 h (group 1) and incubated for 4 h for the time points 4 h to 48 h (group 2). After incubation, the medium was removed, cells were washed with 1 mL of cold PBS, 1 mL of cell media was added and, similarly to uptake and internalization, cells were again incubated in nonradioactive media for 0, 15, 30, 45, 60 min, 2 h, 4 h (group 1) and 4 h, 8 h, 24 h, 32 h or 48 h (group 2) (3 wells per time point). After respective incubation times per well, the medium was removed, and cells were washed with 1 mL of cold PBS, then removed from the well with 1 mL of trypsin to measure the residual radioactivity by gamma counter. The results of residual activity were expressed as percentage of the 1 h (Group 1) or 4 h (Group 2) uptake activity (0 min of efflux time-point) as a function of time for 10^6 cells.
All the assays were performed at least 3 times, each with different ^64Cu-DOTHA2-PSMA production and cell passage. Cells were counted in 3 wells for each protocol (uptake, internalization, and efflux) on day 1 and day 3 of each experiment and an average for cells numbers at day 2.

[4] = Balb/c mice biodistribution; assay type: in vivo; conditions: 2 h p.i.
Experimental: ^64Cu-DOTHA2-PSMA biodistribution was assessed in balb/c mice (n = 30) by harvesting blood and organs at 1 h, 2 h, 4 h, 24 h, and 48 h p.i. to measure tissue radioactivity and weight. Results were reported as the %IA/g of tissue and compared with the radiotracer used for clinical imaging in our facility, ^68Ga-PSMA-617.
Balb/c mice (n = 30) were injected with a bolus of ^64Cu-DOTHA2-PSMA by the tail vein (in 0.3 mL of saline: 3 MBq for 1 h, 2 h, and 4 h p.i., 7.5 MBq for 24 h p.i. and 21 MBq for 48 h p.i.). Injected activity had to be increased for later time points to ensure reliable detection and reliability in organs with a low uptake, e.g., the brain. At all timepoints, blood was collected using a heparin-coated syringe by femoral vein puncture and mice were then euthanized and dissected. Harvested tissues were rinsed, blotted dry, and then weighted and counted in gamma counter. The results are reported as the %IA per gram of tissue. The biodistribution results were compared with the ^68Ga-PSMA-617 results obtained by our team at 1 h and 2 h p.i.

[5] = target: T1, PSMA on the LNCaP human prostate cell line (Homo sapiens, UniProt Q04609); test: Cellular competition assay; assay type: binding
T1 construct: Human prostate adenocarcinoma LNCaP PSMA-expressing cells were purchased from American Type Culture Collection; host or cells: LNCaP human prostate adenocarcinoma cells
T1 sequence (Q04609 whole entry): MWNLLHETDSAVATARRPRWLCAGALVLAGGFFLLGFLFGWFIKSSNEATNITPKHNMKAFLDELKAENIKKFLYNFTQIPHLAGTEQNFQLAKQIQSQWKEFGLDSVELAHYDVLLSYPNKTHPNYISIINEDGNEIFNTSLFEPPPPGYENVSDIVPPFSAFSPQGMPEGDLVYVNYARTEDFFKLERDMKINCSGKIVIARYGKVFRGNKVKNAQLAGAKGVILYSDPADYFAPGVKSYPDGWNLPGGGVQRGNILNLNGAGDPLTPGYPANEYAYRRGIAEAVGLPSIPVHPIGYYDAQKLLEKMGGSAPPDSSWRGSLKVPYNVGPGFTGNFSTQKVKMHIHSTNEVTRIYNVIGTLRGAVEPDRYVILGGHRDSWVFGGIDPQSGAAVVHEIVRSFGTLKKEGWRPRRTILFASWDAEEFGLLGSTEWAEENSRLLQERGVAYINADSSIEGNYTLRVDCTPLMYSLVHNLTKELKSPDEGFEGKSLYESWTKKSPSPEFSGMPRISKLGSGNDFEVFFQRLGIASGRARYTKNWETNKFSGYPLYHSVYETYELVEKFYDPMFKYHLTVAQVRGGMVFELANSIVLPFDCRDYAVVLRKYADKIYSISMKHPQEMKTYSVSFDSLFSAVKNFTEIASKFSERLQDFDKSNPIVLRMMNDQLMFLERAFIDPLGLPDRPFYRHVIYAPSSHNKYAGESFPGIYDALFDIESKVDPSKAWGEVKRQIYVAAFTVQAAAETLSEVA
Experimental: Here, 12-well polylysine-coated Cellbind plates were seeded with 150 × 10^3 LNCaP cells. […] […] Cells were then incubated for 1 h, after which the medium was removed, cells were washed once with 1 mL of cold PBS, and then 1 mL of trypsin was added to collect cells for radioactivity measurement by gamma-counter. The assays were performed in triplicate, each time with independent ^64Cu-DOTHA2-PSMA production and cell seedings. IC50 was calculated using GraphPad Prism 9 one site fit logIC50.

Compound: O=C(O)CC[C@H](NC(=O)N[C@@H](CCCCNC(=O)[C@H](Cc1ccc2ccccc2c1)NC(=O)[C@H]1CC[C@H](CNC(=O)CN2CCN(CC(=O)O)CCN(CC(=O)O)CCN(CC(=O)O)CC2)CC1)C(=O)O)C(=O)O [PSMA-617]
- Ki (PSMA): 2.34 ± 2.94 nM

Compound: CC(=O)[O-].CC(=O)[O-].[64Cu+2] [^64Cu(OAc)2]
- proportion of the signal bound to plasma proteins [1]: greater than 90%

Compound: O=C([O-])CN1CCN(CC(=O)[O-])CCN(CC(=O)NCC2CCC(C(=O)NC(Cc3ccc4ccccc4c3)C(=O)NCCCCC(NC(=O)NC(CCC(=O)O)C(=O)O)C(=O)O)CC2)CCN(CC(=O)O)CC1.[64Cu+2] (centres unmarked) [^64Cu-PSMA-617]
- signal corresponding to the intact product in blood ([2]; 2 h p.i.): 20%
- signal corresponding to the intact product in liver ([2]; 2 h p.i.): 28%
- signal corresponding to the intact product in urine ([2]; 2 h p.i.): 5.2%
- signal corresponding to the intact product in serum ([2]; after 5 min): 71%
- log D [3]: −1.93 ± 0.13

Compound: O=C(O)CCC(NC(=O)NC(CCCCNC(=O)C(Cc1ccc2ccccc2c1)NC(=O)C1CCC(CNC(=O)CN2CCN(CC(=O)O)CCN(CC(=O)O)CCN(CC(=O)O)CC2)CC1)C(=O)O)C(=O)O.[68Ga] (centres unmarked) [^68Ga-PSMA-617, reference compound]
- Retained activity normalized to time 0 (LNCaP cells; efflux time 0.25 h): 101.57%
- Retained activity normalized to time 0 (LNCaP cells; efflux time 0.50 h): 106.07%
- Retained activity normalized to time 0 (LNCaP cells; efflux time 0.75 h): 97.22%
- Retained activity normalized to time 0 (LNCaP cells; efflux time 1 h): 84.75%
- Retained activity normalized to time 0 (LNCaP cells; efflux time 2 h): 81.62%
- liver uptake [4]: 0.67 ± 0.16 % IA/g
- log D [3]: −1.98

Compound: CN([O-])C(=O)CN1CCN(CC(=O)NCC2CCC(C(=O)NC(Cc3ccc4ccccc4c3)C(=O)NCCCCC(NC(=O)NC(CCC(=O)O)C(=O)O)C(=O)O)CC2)CCN(CC(=O)N(C)[O-])CCN(CC(=O)N(C)O)CC1.[Cu+2] (centres unmarked) [^natCu-DOTHA2-PSMA]
- IC50 ([5]; in competition with 64Cu-DOTHA2-PSMA, 1 h, reaction medium with 20 g/L BSA, read-out: IC50 on LNCaP): 11.3 ± 14.3 nM
- IC50 ([5]; with 10% BSA in RPMI, read-out: IC50): 21.4 nM
- IC50 ([5]; with RPMI only, read-out: IC50): 9.08 nM
